Data as given in patent US11530211B2, “Dihydroindolizinone derivative” (DAIICHI SANKYO COMPANY, LIMITED, priority 2018, dated 2022).
Read-outs that look alike come from different tables or passages of the source.

Experiments:
[1] = tested on: human iPS cell Toe strain; experiment: Effect to promote differentiation from human iPS cells into insulin-producing cells (insulin-positive cell rate, imaging); assay type: cell-based; set-up: key to Activity: +: the sum of activity values at the two concentrations was obviously higher than the control untreated with compounds while being lower than the positive control; ++: the sum was equivalent to the positive control; +++: the sum was higher than the positive control; details: for EC50: efficacy of 10 μM of the compound of Example 1 taken as 100%, 0.01 to 10 μM, read-out: E050; for Activity: sum of activity values at 2 μM and 10 μM compared with positive control (compound of Example 1), added at stages 3 to 5
Excerpt: The evaluation system of the effect (efficacy) to promote differentiation from human iPS cells into insulin-producing cells was constructed with reference to known information (Non Patent Document 6). Further, the medium used in each differentiation stage was also produced with reference to known information (differentiation media A to E (Media A to E) described in Non Patent Document 6 were used respectively for stages 1 to 5; however, a medium free from GLP-1 receptor agonist and nicotinamide was used as differentiation medium E).
In order to evaluate the efficacy of each compound, the compound of Example 1 was used as a positive control, and dimethylsulfoxide (DMSO) (SIGMA, D2650) with a final concentration of 0.1% was used as a control untreated with compounds. […] In the following evaluation, the compound solutions were added to the medium to 0.1% that is the final concentration of DMSO. First, induction from human iPS cell Toe strain (National Institutes of Biomedical Innovation, Health and Nutrition) into cells on day 7 of culture (2 days after replacement with differentiation medium C (cells in the differentiation process from FOXA2-positive primitive gut tube cells into PDX1-positive pancreatic progenitor cells)) was performed according to the method of Non Patent Document 6 for “inducing differentiation from human iPS cells into pancreatic β cells”, and the cells were collected and thereafter stored in liquid nitrogen using Bambanker (NIPPON Genetics Co, Ltd.) at 1×10^7 cells/mL/tube, to produce a cell stock for evaluation. The cell stock was dissolved at the start of the evaluation of efficacy, suspended in differentiation medium C for stage 3 (DMEM high glucose (Life technologies, 11965092), 0.25 μM SANT-1, 0.1 μM LDN193189 (Stemgent, 04-0074), 10 μM SB431542, 2 μM Retinoic acid (Stemgent, 04-0021), 1% B27 serum free supplement (Life technologies, 17504044) and thereafter seeded in a 96-well plate (Corning, #3340) coated with Synthemax II (Corning, #5656) at 1×10^5 cells/well. After culturing for 2 days, the medium was removed, and new differentiation medium C for stage 3 with the compound or only DMSO added was added thereto at 100 μL/well. After culturing for 2 days, the medium was removed, and new differentiation medium D for stage 4 (DMEM high glucose, 0.1 μM LDN193189, 5 μM TGF-β type I receptor kinase inhibitor II (Calbiochem 616452), 0.3 μM (−)-indolactam V (Enzo life science ALX-420-011-C300), 1% B27 serum free supplement) with the compound or only DMSO added was added thereto at 100 μL/well. After culturing for 2 to 3 days, the medium was removed, and new differentiation medium E for stage 5 (GLP-1 receptor agonist and nicotinamide-free; Knockout […] (Life technologies, 12660012), 1% B27 serum free supplement) with the compound or only DMSO added was added thereto at 200 μL/well. After culturing for 2 days, the medium was removed, and a 4% paraformaldehyde phosphorus acid buffer (Wako, 163-20145) was added thereto at 150 μL/well and left standing for 30 to 60 minutes at room temperature to fix the cells. A phosphorus acid buffer (PBS) (Takara, T9181) containing 1% Triton X-100 (Sigma, T8787) was left standing for 15 minutes at room temperature, then washed with PBS-T (Takara, T9183), and was blocked for 1 hour using 20% Blocking One (Nacalai tesque, Tokyo, Japan) diluted with PBS-T at room temperature. After the removal of Blocking One, guinea pig anti-insulin antibody (Abcam, ab7842) diluted 200-fold with 20% Blocking One was added thereto at 50 μL/well, followed by standing at 4° C. overnight. After washing with PBS-T 3 times, […]-labeled anti-guinea pig antibody (Life Technologies, A11075) diluted 1000-fold with 20% Blocking One and 6-diamidino-2-phenylindole (DAPI) (Roche Diagnostics, Basel, Switzerland) were added thereto, followed by standing at room temperature for 2 hours. After washing with PBS-T 3 times, the fluorescence images of the cells were analyzed. […]

[2] = molecular target: T1, UCHL1 (Homo sapiens, UniProt P09936); experiment: Evaluation of UCHL1 activation (ubiquitin-AMC hydrolysis); details: test compound 10 μM; control (DMSO) = 100; fluorescence increment 10 minutes to 2 hours; n=3
T1 sequence (P09936 1-223): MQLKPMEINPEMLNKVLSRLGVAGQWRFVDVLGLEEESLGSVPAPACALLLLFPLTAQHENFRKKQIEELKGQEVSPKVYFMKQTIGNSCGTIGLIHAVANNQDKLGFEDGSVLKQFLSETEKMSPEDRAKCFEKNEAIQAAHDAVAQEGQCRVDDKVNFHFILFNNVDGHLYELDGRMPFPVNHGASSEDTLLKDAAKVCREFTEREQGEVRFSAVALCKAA
Method: Using dimethylsulfoxide (DMSO) (SIGMA, D2650) as a control untreated with compounds (which will be hereinafter referred to as control), each test compound was dissolved in DMSO in use. DMSO and the test compound solutions were each added to the enzymatic reaction solution to a final concentration of 2%. […] The amount of fluorescence (excitation wavelength: 350 nm and fluorescence wavelength: 440 nm) of AMC generated due to hydrolysis of the fluorescence-labeled substrate was measured 10 minutes and 2 hours after the start of the enzymatic reaction, to calculate the increment in amount of fluorescence by subtraction between the two.
The amount of fluorescence of AMC was measured using Envision (PerkinElmer). The increment in amount of fluorescence of the control was taken as 100%, and the increment in amount of fluorescence of each test compound was expressed as a percentage (%) based on this, to obtain an enzymatic activity value. Enzymatic activity value (%)={(Amount of fluorescence increment of each test compound)/(Amount of fluorescence increment of control)}×100

[3] = tested on: ZDF disease rats; experiment: Glucose tolerance test after 4 weeks repeated oral administration in ZDF rats; assay type: in vivo, rat; details: 10 mg/kg orally once a day for 4 weeks; Day 28; 60 minutes after 2 g/kg glucose loading minus before loading; male ZDF disease rats
Method: After repeated oral administration of the compound according to Example 9 to 8 week-old male ZDF disease rats (CHARLES RIVER LABORATORIES JAPAN, INC.) for 4 weeks (from Day 1 to 28), a glucose tolerance test was conducted on Day 28 to investigate the effect to improve the pathological conditions of diabetes. On Day 0, the ZDF disease rats were subjected to measurement of blood sugar, insulin value, and body weight, as needed, and were grouped by multivariable block assignment. The experiments were conducted in a total of 3 groups of 4 male ZDF Lean rats (lean group), a group of 8 ZDF disease rats with a 0.5 w/v % methylcellulose 400 solution (which will be hereinafter referred to as 0.5% MC) administered (vehicle group), and a group of 8 ZDF disease rats with the compound of Example 9 administered (Example 9 group). The compound according to Example 9 was suspended in 0.5% MC and was orally administered 10 mg/kg once a day.
The glucose tolerance test was conducted as follows. […] Before the glucose loading and 60 minutes after the glucose loading, blood was collected from the tail vein, and the blood sugar was measured.
The blood sugar was measured using glucose C2-Test Wako (Cat No. 437-90902 for 700 times, available from Wako Pure Chemical Industries, Ltd).

EC50 ([1]; Homo sapiens) [nM]	SMILES	further results
–	O=C1CCC(C(=O)Nc2ncc(-c3ccc(OC(F)(F)F)cc3)s2)n2cccc21 (single isomer, unassigned) [Example 10b]	EC50 [1]: 220 nM; Activity [1]: +++
–	O=C1CCC(C(=O)Nc2ncc(-c3ccc(OC(F)(F)F)cc3)s2)n2cccc21 (single isomer, unassigned) [Example 10a]	EC50 [1]: 1200 nM; Activity [1]: +++
310	Cc1nc(NC(=O)C2CCC(=O)c3cccn32)sc1-c1ccc(OC(F)(F)F)cc1 (centres unmarked) [Example 36, N-[4-Methyl-5-[4-(trifluoromethoxy)phenyl]thiazol-2-yl]-8-oxo-6,7-dihydro-5H-indolizine-5-carboxamide]	–
540	O=C1CCC(C(=O)Nc2nc3ccc(-c4ccc(OC(F)(F)F)cc4)cc3s2)n2cccc21 (centres unmarked) [Example 59, 8-Oxo-N-[6-[4-(trifluoromethoxy)phenyl]-1,3-benzothiazol-2-yl]-6,7-dihydro-5H-indolizine-5-carboxamide]	–
–	Cc1nc(NC(=O)C2CCC(=O)c3cccn32)sc1-c1ccc(OC(C)(C)C)cc1 (single isomer, unassigned) [Example 101a]	Activity [1]: +
820	O=C1CCC(C(=O)Nc2ncc(-c3ccc4c(c3)OC(F)(F)O4)s2)n2cccc21 (centres unmarked) [Example 40, N-[5-(2,2-Difluoro-1,3-benzodioxol-5-yl)thiazol-2-yl]-8-oxo-6,7-dihydro-5H-indolizine-5-carboxamide]	–
90	Cc1nc(NC(=O)C2CCC(=O)c3cccn32)sc1-c1ccc(OC(C)(C)C)cc1 (single isomer, unassigned) [Example 101b]	Activity [1]: +++; Enzyme activity (c/o) [2]: 318 c/o
1600	O=C1CC(C(=O)Nc2ncc(-c3ccc(OC(F)(F)F)cc3)s2)n2cccc21 (centres unmarked) [Example 58]	–
1800	CC1(C(=O)Nc2ncc(-c3ccc(OC(F)(F)F)cc3)s2)CCC(=O)c2cccn21 (centres unmarked) [Example 65]	–
230	O=C1CCC(C(=O)Nc2ncc(-c3ccc(OC(F)(F)F)cc3)s2)n2cccc21 (centres unmarked) [Example 9, 8-Oxo-N-[5-[4-(trifluoromethoxy)phenyl]thiazol-2-yl]-6,7-dihydro-5H-indolizine-5-carboxamide]	Δ Plasma glucose [3]: -275.8 mg/dL; Enzyme activity (c/o) [2]: 270 c/o
450	O=C1CCC(C(=O)Nc2ncc(-c3ccc(C(F)(F)F)cc3)s2)n2cccc21 (centres unmarked) [Example 21, 8-Oxo-N-[5-[4-(trifluoromethyl)phenyl]thiazol-2-yl]-6,7-dihydro-5H-indolizine-5-carboxamide]	–
540	O=C1CCC(C(=O)Nc2ncc(-c3ccc(Oc4ccccc4)cc3)s2)n2cccc21 (centres unmarked) [Example 46, 8-Oxo-N-[5-(4-phenoxyphenyl)thiazol-2-yl]-6,7-dihydro-5H-indolizine-5-carboxamide]	–
–	Cc1ccc(-c2cnc(NC(=O)C3CCC(=O)c4cccn43)s2)cc1 (centres unmarked) [Example 18]	Activity [1]: ++
290	O=C1CCC(C(=O)Nc2nc3ccc(-c4ccc(Cl)cc4)cc3s2)n2cccc21 (centres unmarked) [Example 93, N-[6-(4-Chlorophenyl)-1,3-benzothiazol-2-yl]-8-oxo-6,7-dihydro-5H-indolizine-5-carboxamide]	–
5800	O=C1CCC(C(=O)Nc2ncc(-c3ccccc3)s2)n2cccc21 (centres unmarked) [Example 1, 8-Oxo-N-(5-phenylthiazol-2-yl)-6,7-dihydro-5H-indolizine-5-carboxamide]	–
240	Cc1nc(NC(=O)C2CCC(=O)c3cccn32)sc1-c1ccc(OCC(F)(F)F)cc1 (centres unmarked) [Example 88, N-[4-Methyl-5-[4-(2,2,2-trifluoroethoxy)phenyl]thiazol-2-yl]-8-oxo-6,7-dihydro-5H-indolizine-5-carboxamide]	Enzyme activity (c/o) [2]: 422 c/o
–	O=C1CCC(C(=O)Nc2ncc(-c3ccc4ccccc4c3)s2)n2cccc21 (centres unmarked) [Example 24, N-[5-(2-Naphthyl)thiazol-2-yl]-8-oxo-6,7-dihydro-5H-indolizine-5-carboxamide]	Activity [1]: +
190	O=C1CCC(C(=O)Nc2ncc(-c3ccc(OCc4ccccc4)c(F)c3)s2)n2cccc21 (centres unmarked) [Example 43, N-[5-(4-Benzyloxy-3-fluorophenyl)thiazol-2-yl]-8-oxo-6,7-dihydro-5H-indolizine-5-carboxamide]	–
130	O=C1CCC(C(=O)Nc2ncc(-c3ccc(OCC(F)(F)F)cc3)s2)n2cccc21 (centres unmarked) [Example 45, 8-Oxo-N-[5-[4-(2,2,2-trifluoroethoxy)phenyl]thiazol-2-yl]-6,7-dihydro-5H-indolizine-5-carboxamide]	–
1000	O=C1CCC(C(=O)Nc2ncc(-c3ccc(OC(F)(F)F)c(Cl)c3)s2)n2cccc21 (centres unmarked) [Example 30, N-[5-[3-Chloro-4-(trifluoromethoxy)phenyl]thiazol-2-yl]-8-oxo-6,7-dihydro-5H-indolizine-5-carboxamide]	–

SMILES	EC50 ([1]; Homo sapiens) [nM]	further results
Cc1nc(NC(=O)C2CCC(=O)c3cccn32)sc1-c1ccc(OC(C)(C)C)cc1 (centres unmarked) [Example 35, N-[5-(4-tert-Butoxyphenyl)-4-methylthiazol-2-yl]-8-oxo-6,7-dihydro-5H-indolizine-5-carboxamide]	250	–
CC(C)(C)Oc1ccc(-c2cnc(NC(=O)C3CCC(=O)c4cccn43)s2)cc1 (centres unmarked) [Example 11, N-[5-(4-Tert-butoxyphenyl)thiazol-2-yl]-8-oxo-6,7-dihydro-5H-indolizine-5-carboxamide]	490	–
